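Exposure lasted 48 hours, with cells grown in 96-well plates and compounds tested at five concentrations. At the GI50, growth is halved. Definition used: TGI = concentration required for complete inhibition of growth.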
How the values were obtained:
Experiment in all cases: NCI tumour cell line growth inhibition, 48 h
[1] = tested on: A549 NSCLC
[2] = tested on: ACHN renal
[3] = tested on: CCRF-CEM leukemia
[4] = tested on: COLO 205 colon
[5] = tested on: DU-145 prostate
[6] = tested on: EKVX NSCLC
[7] = tested on: HCT-116 colon
[8] = tested on: HCT-15 colon
[9] = tested on: HL-60(TB) leukemia
[10] = tested on: HOP-92 NSCLC
[11] = tested on: HS 578T breast
[12] = tested on: HT29 colon
[13] = tested on: IGROV1 ovarian
[14] = tested on: K-562 leukemia
[15] = tested on: KM12 colon
[16] = tested on: LOX IMVI melanoma
[17] = tested on: M14 melanoma
[18] = tested on: MDA-MB-231 breast
[19] = tested on: MDA-MB-435
[20] = tested on: MDA-N
[21] = tested on: MOLT-4 leukemia
[22] = tested on: NCI-H23 lung
[23] = tested on: NCI-H460 lung
[24] = tested on: NCI-H522 lung
[25] = tested on: NCI/ADR-RES ovarian
[26] = tested on: OVCAR-3 ovarian
[27] = tested on: OVCAR-4 ovarian
[28] = tested on: OVCAR-5 ovarian
[29] = tested on: OVCAR-8 ovarian
[30] = tested on: PC-3 prostate
[31] = tested on: RPMI-8226 leukemia
[32] = tested on: RXF 393 renal
[33] = tested on: SF-268 CNS
[34] = tested on: SF-295 CNS
[35] = tested on: SF-539 CNS
[36] = tested on: SK-MEL-2 melanoma
[37] = tested on: SK-MEL-28 melanoma
[38] = tested on: SK-MEL-5 melanoma
[39] = tested on: SK-OV-3 ovarian
[40] = tested on: SN12C renal
[41] = tested on: SNB-19 CNS
[42] = tested on: SNB-75 CNS
[43] = tested on: SR leukemia
[44] = tested on: SW-620 colon
[45] = tested on: T-47D breast
[46] = tested on: TK-10 renal
[47] = tested on: U251 CNS
[48] = tested on: UACC-257 melanoma
[49] = tested on: UACC-62 melanoma
[50] = tested on: UO-31 renal
[51] = tested on: 786-0 renal
[52] = tested on: A498 renal
[53] = tested on: BT-549 breast
[54] = tested on: CAKI-1 renal
[55] = tested on: HCC-2998 colon
[56] = tested on: HOP-62 NSCLC
[57] = tested on: MALME-3M melanoma
[58] = tested on: MCF7 breast
[59] = tested on: NCI-H226 lung

Question: Which results are given for CCN1c2ccccc2-n2c(C)nnc2-c2c1n[nH]c2-c1ccccc1?
Answer: TGI [1]: > 100 µM; TGI [2]: > 100 µM; TGI [3]: 55.4 µM; TGI [4]: > 100 µM; TGI [5]: > 100 µM; TGI [6]: > 100 µM; TGI [7]: > 100 µM; TGI [8]: > 100 µM; TGI [9]: 28.5 µM; TGI [10]: > 100 µM; TGI [11]: > 100 µM; TGI [12]: > 100 µM; TGI [13]: > 100 µM; TGI [14]: 26 µM; TGI [15]: > 100 µM; TGI [16]: 89.2 µM; TGI [17]: > 100 µM; TGI [18]: 71.1 µM; TGI [19]: 82.9 µM; TGI [20]: > 100 µM; TGI [21]: 50.7 µM; TGI [22]: > 100 µM; TGI [23]: > 100 µM; TGI [24]: 5.98 µM; TGI [25]: 73.1 µM; TGI [26]: > 100 µM; TGI [27]: > 100 µM; TGI [28]: > 100 µM; TGI [29]: > 100 µM; TGI [30]: 96.5 µM; TGI [31]: 82.3 µM; TGI [32]: > 100 µM; TGI [33]: > 100 µM; TGI [34]: > 100 µM; TGI [35]: > 100 µM; TGI [36]: 45.6 µM; TGI [37]: > 100 µM; TGI [38]: 35.3 µM; TGI [39]: > 100 µM; TGI [40]: 81.6 µM; TGI [41]: > 100 µM; TGI [42]: > 100 µM; TGI [43]: 59.2 µM; TGI [44]: > 100 µM; TGI [45]: 74.7 µM; TGI [46]: > 100 µM; TGI [47]: 46.8 µM; TGI [48]: > 100 µM; TGI [49]: 98.9 µM; TGI [50]: > 100 µM

Question: For O=C(Nc1ccc(N2CCNCC2)cc1)c1[nH]ncc1Nc1cc(Oc2ccccc2)ncn1, which GI50 [51] is on record?
Answer: 1.84 µM

Question: What about the TGI [51] of the same molecule?
Answer: 3.33 µM

Question: What about the GI50 [52] of the same molecule?
Answer: 1.96 µM

Question: And the TGI [52]?
Answer: 4.82 µM

Question: And the GI50 [1]?
Answer: 1.07 µM

Question: What about the TGI [1] of the same molecule?
Answer: 2.95 µM

Question: And the GI50 [2]?
Answer: 0.213 µM

Question: And the TGI [2]?
Answer: 0.479 µM

Question: And the GI50 [53]?
Answer: 1.84 µM

Question: And the TGI [53]?
Answer: 3.58 µM

Question: And the GI50 [54]?
Answer: 1.21 µM

Question: What about the TGI [54] of the same molecule?
Answer: 3.39 µM

Question: What about the GI50 [3] of the same molecule?
Answer: 1.83 µM

Question: And the TGI [3]?
Answer: 4.73 µM

Question: And the GI50 [4]?
Answer: 1.19 µM

Question: And the TGI [4]?
Answer: 2.78 µM

Question: What about the GI50 [5] of the same molecule?
Answer: 3.03 µM

Question: What about the TGI [5] of the same molecule?
Answer: 11.2 µM

Question: What about the GI50 [6] of the same molecule?
Answer: 1.99 µM

Question: And the TGI [6]?
Answer: 6.79 µM

Question: What about the GI50 [55] of the same molecule?
Answer: 1.95 µM

Question: And the TGI [55]?
Answer: 4.2 µM

Question: What about the GI50 [7] of the same molecule?
Answer: 1.42 µM

Question: What about the TGI [7] of the same molecule?
Answer: 2.99 µM

Question: And the GI50 [8]?
Answer: 2.18 µM

Question: What about the TGI [8] of the same molecule?
Answer: 5.64 µM

Question: And the GI50 [9]?
Answer: 1.91 µM

Question: What about the TGI [9] of the same molecule?
Answer: 4.54 µM

Question: And the GI50 [56]?
Answer: 2.24 µM

Question: What about the TGI [56] of the same molecule?
Answer: 6.05 µM

Question: And the GI50 [10]?
Answer: 2.35 µM

Question: What about the TGI [10] of the same molecule?
Answer: 5.32 µM

Question: What about the GI50 [11] of the same molecule?
Answer: 3.06 µM

Question: What about the TGI [11] of the same molecule?
Answer: 14.8 µM

Question: And the GI50 [12]?
Answer: 1.78 µM

Question: And the TGI [12]?
Answer: 4.53 µM

Question: And the GI50 [13]?
Answer: 3 µM

Question: And the TGI [13]?
Answer: 11.3 µM

Question: What about the GI50 [14] of the same molecule?
Answer: 2.22 µM

Question: And the TGI [14]?
Answer: 10.9 µM

Question: What about the GI50 [15] of the same molecule?
Answer: 0.216 µM

Question: And the TGI [15]?
Answer: 0.521 µM

Question: What about the GI50 [16] of the same molecule?
Answer: 0.22 µM

Question: What about the TGI [16] of the same molecule?
Answer: 0.54 µM

Question: What about the GI50 [17] of the same molecule?
Answer: 1.55 µM

Question: What about the TGI [17] of the same molecule?
Answer: 3.19 µM

Question: And the GI50 [57]?
Answer: 1.98 µM

Question: What about the TGI [57] of the same molecule?
Answer: 4.93 µM

Question: What about the GI50 [58] of the same molecule?
Answer: 1.28 µM

Question: And the TGI [58]?
Answer: 4.07 µM

Question: What about the GI50 [18] of the same molecule?
Answer: 2.03 µM

Question: And the TGI [18]?
Answer: 5.72 µM

Question: What about the GI50 [19] of the same molecule?
Answer: 1.68 µM

Question: What about the TGI [19] of the same molecule?
Answer: 4.66 µM

Question: What about the GI50 [21] of the same molecule?
Answer: 2.05 µM

Question: What about the TGI [21] of the same molecule?
Answer: 5.28 µM

Question: And the GI50 [59]?
Answer: 1.91 µM

Question: What about the TGI [59] of the same molecule?
Answer: 10.5 µM

Question: What about the GI50 [22] of the same molecule?
Answer: 2.12 µM

Question: What about the TGI [22] of the same molecule?
Answer: 7.85 µM

Question: And the GI50 [23]?
Answer: 0.635 µM

Question: And the TGI [23]?
Answer: 2.3 µM

Question: What about the GI50 [24] of the same molecule?
Answer: 2.14 µM

Question: And the TGI [24]?
Answer: 8.19 µM

Question: What about the GI50 [25] of the same molecule?
Answer: 12 µM

Question: And the TGI [25]?
Answer: 39.2 µM

Question: And the GI50 [26]?
Answer: 2.18 µM

Question: What about the TGI [26] of the same molecule?
Answer: 6.26 µM

Question: And the GI50 [27]?
Answer: 2.59 µM

Question: And the GI50 [28]?
Answer: 1.78 µM

Question: And the TGI [28]?
Answer: 4.24 µM

Question: What about the GI50 [29] of the same molecule?
Answer: 2.91 µM

Question: And the TGI [29]?
Answer: 12.2 µM

Question: What about the GI50 [30] of the same molecule?
Answer: 1.47 µM

Question: What about the TGI [30] of the same molecule?
Answer: 3.2 µM

Question: What about the GI50 [31] of the same molecule?
Answer: 1.5 µM

Question: What about the TGI [31] of the same molecule?
Answer: 3.88 µM

Question: What about the GI50 [32] of the same molecule?
Answer: 1.75 µM

Question: What about the TGI [32] of the same molecule?
Answer: 3.33 µM

Question: And the GI50 [33]?
Answer: 3.57 µM

Question: And the TGI [33]?
Answer: 14.4 µM

Question: What about the GI50 [34] of the same molecule?
Answer: 1.7 µM

Question: What about the TGI [34] of the same molecule?
Answer: 3.27 µM

Question: What about the GI50 [35] of the same molecule?
Answer: 1.69 µM

Question: What about the TGI [35] of the same molecule?
Answer: 3.35 µM

Question: What about the GI50 [36] of the same molecule?
Answer: 3.82 µM

Question: And the TGI [36]?
Answer: 15.3 µM

Question: What about the GI50 [37] of the same molecule?
Answer: 2.26 µM

Question: What about the TGI [37] of the same molecule?
Answer: 5.75 µM

Question: And the GI50 [38]?
Answer: 1.43 µM

Question: And the TGI [38]?
Answer: 3 µM

Question: What about the GI50 [39] of the same molecule?
Answer: 1.99 µM

Question: And the TGI [39]?
Answer: 4.84 µM

Question: What about the GI50 [40] of the same molecule?
Answer: 3.19 µM

Question: What about the TGI [40] of the same molecule?
Answer: 9.31 µM

Question: What about the GI50 [41] of the same molecule?
Answer: 3.19 µM

Question: And the TGI [41]?
Answer: 12.5 µM

Question: What about the GI50 [42] of the same molecule?
Answer: 2.45 µM

Question: And the TGI [42]?
Answer: 5.6 µM

Question: What about the GI50 [43] of the same molecule?
Answer: 0.299 µM

Question: And the TGI [43]?
Answer: 1.84 µM

Question: What about the GI50 [44] of the same molecule?
Answer: 0.514 µM

Question: What about the TGI [44] of the same molecule?
Answer: 1.94 µM

Question: And the GI50 [45]?
Answer: 2.46 µM

Question: And the TGI [45]?
Answer: 8.09 µM

Question: And the GI50 [46]?
Answer: 2.07 µM

Question: What about the TGI [46] of the same molecule?
Answer: 4.67 µM

Question: What about the GI50 [47] of the same molecule?
Answer: 2.12 µM

Question: And the TGI [47]?
Answer: 10.5 µM

Question: What about the GI50 [48] of the same molecule?
Answer: 2.86 µM

Question: And the TGI [48]?
Answer: 8.69 µM

Question: And the GI50 [49]?
Answer: 2.15 µM

Question: What about the TGI [49] of the same molecule?
Answer: 4.96 µM

Question: And the GI50 [50]?
Answer: 1.7 µM

Question: What about the TGI [50] of the same molecule?
Answer: 3.36 µM
